Reference: ChEMBL document CHEMBL3507680, “University of Dundee, Gates Library screen for HepG2 cell viability”

Test: Human HepG2 cell viability assay in 384 well format
Assay type: toxicity, cell-based
Design: dose 125 nL, time 70.5 hour; cytotoxicity at 70.5 h: concentration not given beside the values
Settings: HepG2 cells, read-out: Inhibition

Row | SMILES | cytotoxicity at 70.5 h
1 | O=S(=O)(CCCN1CCCCC1Cn1cncn1)c1ccccc1 (stereo not drawn) | -4.13%
2 | Cc1ccc(CN(C)C(=O)CN2CCOC(Cn3cccn3)C2)o1 (stereo not drawn) | -3.39%
3 | NC(=O)CN1CCC(NC(=O)COc2ccc(Cl)c(Cl)c2)CC1 | -2.35%
4 | CS(=O)(=O)N1CCC(NC(=O)COc2ccc3ccccc3c2)CC1 | -1.61%
5 | O=C(CCOc1ccc(Br)cc1)N1CCN(c2cnccn2)CC1 | 24.8%
6 | Cc1cc(C(=O)NCC(C)N2CCc3ccccc32)on1 (stereo not drawn) | 7.49%
7 | CC(C)NC(=O)Nc1ccc(CNCc2ccc(OC(F)F)cc2)cc1 | 13.8%
8 | CCOc1ncccc1NC(=O)NC1CCN(c2ncccn2)CC1 | 2.59%
9 | COC(=O)c1cccn1C1CCN(S(=O)(=O)c2ccccc2)CC1 | 3.76%
10 | O=C(CCOc1cccc(Cl)c1)N1CCN(c2cnccn2)CC1 | 22%
11 | CC(CNC(=O)c1cc(C2CC2)on1)N1CCc2ccccc21 (stereo not drawn) | 2.16%
12 | CCOC(=O)N1CCC(NC(=O)Nc2cccnc2OCC)CC1 | 6.34%
13 | CCOc1ncccc1NC(=O)NC1CCN(C(=O)C2CC2)CC1 | 3.99%
14 | CCOc1ncccc1NC(=O)NC1CCCN(S(C)(=O)=O)C1 (stereo not drawn) | -0.949%
15 | CN(Cc1ccsc1)C(=O)CN1CCOC(Cn2cncn2)C1 (stereo not drawn) | -1.49%
16 | Cc1cnn(CC2CCCN2C(=O)c2c(F)cccc2Cl)c1 (stereo not drawn) | 0.266%
17 | COc1c(C2CCCN2C(=O)c2cccnc2N(C)C)c(C)nn1C (stereo not drawn) | 0.616%
18 | COC(=O)c1cccn1C1CCN(CCN2C(=O)CCC2=O)CC1 | -5.66%
19 | O=S(=O)(CCN1CCCC1Cn1cncn1)c1ccccc1 (stereo not drawn) | -1.96%
20 | CN(CC(=O)N1CCCCC1c1nccs1)C1CC1 (stereo not drawn) | 28.5%
21 | Cc1nn(Cc2ccccc2)c(C)c1CNC1CCc2ncnn2C1 (stereo not drawn) | 0.852%
22 | Cc1nn(C)c(C)c1C1CCCN1Cc1nc2ccccc2o1 (stereo not drawn) | -4.38%
23 | c1ccc(-n2cc(CNC3CCc4ncnn4C3)cn2)cc1 (stereo not drawn) | -4.52%
24 | Clc1ccccc1Cn1cc(CNC2CCc3ncnn3C2)cn1 (stereo not drawn) | -0.86%

Row | SMILES | cytotoxicity at 70.5 h
25 | CCc1nccn1C1CCCN(C(=O)CCCc2ccccn2)C1 (stereo not drawn) | -2.48%
26 | CC(=O)N(Cc1noc(C)n1)C1CCN(Cc2ccccn2)C1 (stereo not drawn) | -8.37%
27 | O=C(Cc1cn2ccccc2n1)N1CCCC(n2ccnc2)C1 (stereo not drawn) | -3.99%
28 | O=C(NCc1nnc2n1CCCCC2)N1CCc2ccccc2C1 | 1.11%
29 | O=C(NCc1nnc2n1CCC2)N1CCc2sccc2C1 | -6.3%
30 | O=C(NCc1nnc2n1CCCC2)N1CCc2sccc2C1 | -4.27%
31 | COc1c(CNCc2cccc(C(=O)N(C)C)c2)c(C)nn1C | 5.09%
32 | CC(NC(=O)NCCc1ccc(Cl)s1)c1ccccn1 (stereo not drawn) | -2.15%
33 | COc1c(CNCc2ccc(S(C)(=O)=O)cc2)c(C)nn1C | 0.0381%
34 | CC(C)c1nccn1C1CCCN(C(=O)c2cc(C(N)=O)cs2)C1 (stereo not drawn) | 2.06%
35 | NS(=O)(=O)c1cc(C(=O)N2CCCC(n3ccnc3)C2)cs1 (stereo not drawn) | -3.09%
36 | Cc1ccc(CNc2cc(N3CCCC3CO)ncn2)s1 (stereo not drawn) | -0.592%
37 | Cc1nc(C)n(C2CCCN(C(=O)Cc3cn4ccccc4n3)C2)n1 (stereo not drawn) | 1.25%
38 | Cc1c(C(=O)N2CCCC(n3cncn3)C2)cnn1C (stereo not drawn) | 3.32%
39 | CC(C)(C)c1n[nH]c(C2CN(CCc3cccs3)CCO2)n1 (stereo not drawn) | 3.37%
40 | CC(=O)N(Cc1noc(C)n1)C1CCN(Cc2c(C)noc2C)C1 (stereo not drawn) | -0.736%
41 | CCc1nccn1C1CCCN(C(=O)Cc2cn3ccsc3n2)C1 (stereo not drawn) | -11.7%
42 | CN(C)CCC1CCN(Cc2ccn(C)c(=O)c2)CC1 | -4.16%
43 | O=C(NCc1csc(Br)c1)c1cnccn1 | -13.5%
44 | CNS(=O)(=O)c1cccc(CNC(=O)c2cc(C)no2)c1 | 15.5%
45 | CCc1ccc(C(=O)NCc2cccc(S(=O)(=O)NC)c2)o1 | -0.952%
46 | Cc1ccc(F)c(S(=O)(=O)NCc2cccc(C(=O)N3CCCC3)c2)c1 | 16.3%
47 | Cn1ccc(CN2CCC(Cc3ccccc3)CC2)cc1=O | 0.151%
48 | Cn1ccc(CN2CCC(CC(=O)N3CCCC3)CC2)cc1=O | -6.85%

Row | SMILES | cytotoxicity at 70.5 h
49 | Cc1cnn(C2CCCN(C(=O)CCCOc3ccccc3F)C2)c1 (stereo not drawn) | -5.78%
50 | Cc1cnn(C2CCCN(C(=O)c3cn(-c4ccccc4)nn3)C2)c1 (stereo not drawn) | -6.41%
51 | COc1ccc(F)cc1CN1CCCC1Cn1nc(C)nc1C (stereo not drawn) | -1.67%
52 | Cc1cnn(CC2CCCN2C(=O)c2ccc3[nH]c(=O)[nH]c3c2)c1 (stereo not drawn) | -1.55%
53 | Cc1cc(C)n(CC2CCCN2C(=O)c2cnc3n[nH]c(C)c3c2)n1 (stereo not drawn) | 1.22%
54 | Cc1nc(C2CCCN(C(=O)c3cnn(C4CCCCC4)c3)C2)no1 (stereo not drawn) | -1.22%
55 | Cc1ccc(N2CCCC(NCc3cc(C)on3)C2)nn1 (stereo not drawn) | -3.47%
56 | O=C(COC1CCCCC1)N1CCCC(n2ccnc2)C1 (stereo not drawn) | -6.58%
57 | O=C(CCOc1cccc(F)c1)N1CCCC(n2cccn2)C1 (stereo not drawn) | -2.03%
58 | O=C(COc1ccccc1Cl)N1CCCC(n2ccnc2)C1 (stereo not drawn) | -2.83%
59 | CSCCC(=O)N1CCCC(n2ccnc2)C1 (stereo not drawn) | -6.36%
60 | O=C(COCCOc1ccccc1)N1CCCC(n2ccnc2)C1 (stereo not drawn) | -4.49%
61 | Cc1cnn(CC2CCCCN2Cc2nccn2CC(F)(F)F)c1 (stereo not drawn) | 4.47%
62 | CCc1n[nH]c(C2CN(C(=O)c3ccnc(N(C)C)c3)CCO2)n1 (stereo not drawn) | 20.1%
63 | COc1cc(CNCc2c(C)nn(C)c2N(C)C)ccn1 | -1.56%
64 | CCN1CCC(NC(=O)CN2CCCC2Cn2nc(C)cc2C)CC1 (stereo not drawn) | -9.53%
65 | O=C(CCN1CCCC1C1CCCCC1)N1CCc2sccc2C1 (stereo not drawn) | 2.92%
66 | COCCOc1ccccc1C(=O)N1CCCCC1c1nccs1 (stereo not drawn) | 50.2%
67 | CCCn1nc2c(cc1=O)CN(CCCN1CCCC1=O)CC2 | 7.69%
68 | COCc1cccc(C(=O)N2CCCCC2c2nccs2)c1 (stereo not drawn) | -8.81%
69 | CCCn1nc2c(cc1=O)CN(CCCS(N)(=O)=O)CC2 | 3.74%
70 | O=C(CCC(=O)N1CCCC1c1cccs1)N1CCc2sccc2C1 (stereo not drawn) | 2.92%
71 | CC(NC(=O)CCCOc1ccccc1)c1nnc2n1CCCCC2 (stereo not drawn) | -20.9%
72 | CCc1cnc(CN2CCCC2c2noc(C3CC3)n2)o1 (stereo not drawn) | -11.3%

Row | SMILES | cytotoxicity at 70.5 h
73 | CC(C)c1nc2n(n1)CC(NCc1nnc(C(C)C)o1)CC2 (stereo not drawn) | -19.6%
74 | COc1cccc(COCC(=O)N2CCCC(n3ccnc3)C2)c1 (stereo not drawn) | -11.9%
75 | FC(F)(F)Cc1noc(CN2CCCC2c2noc(C3CC3)n2)n1 (stereo not drawn) | -8.5%
76 | O=C(COCc1ccccc1)N1CCCC(n2cncn2)C1 (stereo not drawn) | -20.7%
77 | COc1cccc(C(=O)N2CCCC(c3cc(C)[nH]n3)C2)c1OC (stereo not drawn) | -17.6%
78 | Cc1cnn(CC2CCCCN2Cc2nc(-c3ccoc3)no2)c1 (stereo not drawn) | -6.01%
79 | COc1cc(C(=O)N2CCCC(CNS(C)(=O)=O)C2)cc(OC)c1C (stereo not drawn) | -13.5%
80 | O=C(NCc1nncn1-c1ccccc1)C1CC(=O)N(CC2CC2)C1 (stereo not drawn) | -18.1%
81 | COc1ccc(CNC(=O)Nc2cccnc2N2CCCC2)cc1O | -8.02%
82 | Cc1ccc(-c2ncc(C(=O)NCCNC(=O)C(C)C)s2)c(C)c1 | -8.72%
83 | CCN1CCN(CC(O)c2ccc(F)cc2)CC1 (stereo not drawn) | -14.7%
84 | O=C1CCC(C(=O)NCc2nncn2-c2ccccc2)CN1 (stereo not drawn) | -12.6%
85 | CC(NC(=O)Nc1cc(F)ccc1N1CCCCC1)c1nncn1C (stereo not drawn) | -4.36%
86 | Cc1nn(C)c(C)c1C(C)NC(=O)Nc1cccnc1N1CCCC1 (stereo not drawn) | -15.8%
87 | CCOCC(O)CN1CCN(C(=O)CC(C)(C)C)CC1 (stereo not drawn) | -18.5%
88 | CC(C)c1nc2n(n1)CC(NCc1nnc(-c3ccco3)o1)CC2 (stereo not drawn) | -11.9%
89 | N#Cc1ccccc1OCCN1CCCC1Cn1cccn1 (stereo not drawn) | -4.78%
90 | Cn1nc2c(cc1=O)CN(Cc1coc(-c3cccs3)n1)CC2 | -7.48%
91 | Cc1cc(C2CCCN(C(=O)c3ccc(C)[nH]c3=O)C2)n[nH]1 (stereo not drawn) | -13.9%
92 | Cc1noc(C(C)C)c1C(=O)NCCN1CCCCCC1=O | -19%
93 | Cc1nc(C)c(C(=O)NCCNc2ncccc2C#N)s1 | -7.46%
94 | Cn1ccc(C(=O)NCc2cccc(CN3CCCC3)c2)cc1=O | -3.99%
95 | CCN1CCN(C(=O)NCCOc2ccc3c(c2)OCO3)CC1 | -11.4%
96 | CC(O)(CN1CCC2(CC1)OCCO2)c1cccc(C(F)(F)F)c1 (stereo not drawn) | -4.13%

Row | SMILES | cytotoxicity at 70.5 h
97 | COc1ccc(C)cc1CC(=O)N1CCN(CC(C)O)CC1 (stereo not drawn) | -5.05%
98 | Cn1ccc(C(=O)NCc2cccc(NC(=O)C3CCC3)c2)cc1=O | -13.3%
99 | CC(C)OCCN(C)C(C)c1cccc(S(N)(=O)=O)c1 (stereo not drawn) | 22.5%
100 | Cn1cc(-c2nc(CN3CCc4c(ncn4C4CC4)C3)cs2)cn1 | -15.2%
101 | c1ccc(CCNC2CCc3ncnn3C2)nc1 (stereo not drawn) | 3.59%
102 | CC(C)c1nc(CN(C)C2CCN(CCNS(C)(=O)=O)C2)no1 (stereo not drawn) | 32.3%
103 | Cc1ccc(OCCC(=O)N2CCN(c3cnccn3)CC2)cc1C | -4.94%
104 | O=C(CCOc1ccc(Cl)cc1)N1CCN(c2cnccn2)CC1 | -11.5%
105 | CC(C)c1cc(NC(=O)CN2CCC(N3CCCCC3)CC2)on1 | -1.37%
106 | CCOc1ncccc1NC(=O)NC1CCCN(c2ncccn2)C1 (stereo not drawn) | -2.86%
107 | CCn1cc(NC(=O)NCc2ccc(CN3CCOCC3)cc2)cn1 | -6.5%
108 | OC(COc1ccc(F)cc1)CN1CCC(Cn2cccn2)CC1 (stereo not drawn) | 10.3%
109 | CN(Cc1ccsc1)C(=O)CN1CCOC(Cn2cccn2)C1 (stereo not drawn) | 29%
110 | NC(=O)c1cc(NC(=O)NCCc2cc(F)cc(F)c2)ccc1F | 10.2%
111 | Cc1ccc(-c2cc(CN3CCCC(Cn4cncn4)C3)on2)cc1 (stereo not drawn) | 27.6%
112 | O=S(=O)(CCCN1CCCC1Cn1cccn1)c1ccccc1 (stereo not drawn) | -11.1%
113 | CCn1cc(NC(=O)CCc2ccc3c(c2)OCCCO3)cn1 | 10.1%
114 | CCS(=O)(=O)CCN1CCC(N(C)Cc2noc(C(C)C)n2)C1 (stereo not drawn) | -5.52%
115 | COc1ccccc1OCC(=O)NS(=O)(=O)c1ccc(C)s1 | -4.78%
116 | Cc1ccc(-c2nc(CN3CCCC(Cn4cncn4)C3)no2)cc1 (stereo not drawn) | 27.5%
117 | CCCc1nc(C)c(C(=O)NCCN2CCN(CC)CC2)s1 | -5.5%
118 | Cc1cccc(CNC2CCCc3c2cnn3C)c1 (stereo not drawn) | -6.91%
